Source: patent US4199570A, “1-N-Hetero containing aminoglycoside derivatives” (Shionogi & Co., Ltd., priority 1977, dated 1980)
Values after ≈ are worked out from the molar mass of the structure shown.

Tests used:
Assay type in all cases: cell-based
[1] = system: Pseudomonas aeruginosa TB-121; assay: MIC (Table 2); conditions: TB121, tobramycin resistant strain, read-out: Minimum Inhibitory Concentration (MIC)
[2] = system: Staphylococcus epidermidis TB-775; assay: MIC (Table 2); conditions: TB775, tobramycin resistant strain, read-out: Minimum Inhibitory Concentration (MIC)
[3] = system: Staphylococcus epidermidis TB-302; assay: MIC (Table 2); conditions: TB302, tobramycin resistant strain, read-out: Minimum Inhibitory Concentration (MIC)
[4] = system: Pseudomonas aeruginosa TB-151; assay: MIC (Table 2); conditions: TB151, tobramycin resistant strain, read-out: Minimum Inhibitory Concentration (MIC)
Proteus vulgaris TB-615 [5] = assay: MIC (Table 2); conditions: TB615, tobramycin resistant strain, read-out: Minimum Inhibitory Concentration (MIC)
Proteus vulgaris TB-615 [6] = assay: MIC (Table 3); conditions: TB615, read-out: Minimum Inhibitory Concentration (MIC)
[7] = system: Pseudomonas aerginosa TB-121; assay: MIC (Table 3); conditions: TB121, read-out: Minimum Inhibitory Concentration (MIC)
[8] = system: Pseudomonas aeruginosa TB-151; assay: MIC (Table 3); conditions: TB151, read-out: Minimum Inhibitory Concentration (MIC)
[9] = system: Staphylococcus epidermidis TB-775; assay: MIC (Table 3); conditions: TB775, read-out: Minimum Inhibitory Concentration (MIC)

Q: Which MIC [1] does the source give for `NC[C@H]1O[C@H](O[C@H]2[C@H](O)[C@@H](O[C@H]3O[C@H](CO)[C@@H](O)[C@H](N)[C@H]3O)[C@H](NC(=O)C3(O)CNC3)C[C@@H]2N)[C@H](O)[C@@H](O)[C@@H]1O` [Comp. (2), 1-N-(3-hydroxyazetidine-3-carbonyl)kanamycin A] here?
A: 25 µg/mL (≈ 42.8 µM)

Q: And the MIC [2]?
A: 50 µg/mL (≈ 85.7 µM)

Q: And the MIC [3]?
A: 6.25 µg/mL (≈ 10.7 µM)

Q: And the MIC [4]?
A: 6.25 µg/mL (≈ 10.7 µM)

Q: What about the MIC (Proteus vulgaris TB-615 [5]) of the same molecule?
A: 6.25 µg/mL (≈ 10.7 µM)

Q: For `NC[C@H]1O[C@H](O[C@H]2[C@H](O)[C@@H](O[C@H]3O[C@H](CO)[C@@H](O)[C@H](N)[C@H]3O)[C@H](NC(=O)C3(O)CNC3)C[C@@H]2N)[C@H](N)C[C@@H]1O` [Comp. (1), 1-N-(3-hydroxyazetidine-3-carbonyl)tobramycin], which MIC [1] is on record?
A: 25 µg/mL (≈ 44.1 µM)

Q: And the MIC [2]?
A: > 100 µg/mL

Q: What about the MIC [3] of the same molecule?
A: 12.5 µg/mL (≈ 22.1 µM)

Q: What about the MIC [4] of the same molecule?
A: 3.13 µg/mL (≈ 5.52 µM)

Q: What about the MIC (Proteus vulgaris TB-615 [5]) of the same molecule?
A: 6.25 µg/mL (≈ 11 µM)

Q: With `NC[C@H]1O[C@H](O[C@H]2[C@H](O)[C@@H](O[C@H]3O[C@H](CO)[C@@H](O)[C@H](N)[C@H]3O)[C@H](N)C[C@@H]2N)[C@H](O)[C@@H](O)[C@@H]1O` [KM-A, kanamycin A] as the molecule, how does the MIC [1] read?
A: > 100 µg/mL

Q: And the MIC [2]?
A: > 100 µg/mL

Q: What about the MIC [3] of the same molecule?
A: 12.5 µg/mL (≈ 25.8 µM)

Q: What about the MIC [4] of the same molecule?
A: > 100 µg/mL

Q: What about the MIC (Proteus vulgaris TB-615 [5]) of the same molecule?
A: 100 µg/mL (≈ 206 µM)

Q: How did the MIC [1] turn out when `NC[C@H]1O[C@H](O[C@H]2[C@H](O)[C@@H](O[C@H]3O[C@H](CO)[C@@H](O)[C@H](N)[C@H]3O)[C@H](N)C[C@@H]2N)[C@H](N)C[C@@H]1O` [TOB, tobramycin] was run?
A: 100 µg/mL (≈ 214 µM)

Q: What about the MIC [2] of the same molecule?
A: > 100 µg/mL

Q: And the MIC [3]?
A: 25 µg/mL (≈ 53.5 µM)

Q: What about the MIC (Proteus vulgaris TB-615 [6]) of the same molecule?
A: 50 µg/mL (≈ 107 µM)

Q: And the MIC [7]?
A: 25 µg/mL (≈ 53.5 µM)

Q: What about the MIC [4] of the same molecule?
A: 100 µg/mL (≈ 214 µM)

Q: What about the MIC (Proteus vulgaris TB-615 [5]) of the same molecule?
A: 50 µg/mL (≈ 107 µM)

Q: What about the MIC [8] of the same molecule?
A: 25 µg/mL (≈ 53.5 µM)

Q: What about the MIC [9] of the same molecule?
A: 100 µg/mL (≈ 214 µM)
